Assay results as given in ChEMBL document CHEMBL1136676, “The inhibitory effects of squalene-derived triterpenes on protein phosphatase PP2A” (Bioorg Med Chem Lett, 2003).

How the values were obtained:
[1] = Inhibitory activity against protein phosphatase (PP2A) at 1 uM using fluorescein diphosphate
Homo sapiens = species: Homo sapiens; test: Inhibition of protein phosphatase (PP2A) at 10 uM using fluorescein diphosphate
[2] = Inhibition of protein phosphatase (PP2A) at 100 uM
[3] = Inhibition of protein phosphatase (PP2A) at 250 uM
[4] = test system: Serine/threonine-protein phosphatase 2A catalytic subunit alpha; test: Inhibitory activity against protein phosphatase (PP2A) at concentration of 10 uM using fluorescein diphosphate as substrate
[5] = test system: Serine/threonine-protein phosphatase 2A catalytic subunit alpha; test: Inhibitory activity against protein phosphatase (PP2A) at concentration of 100 uM using fluorescein diphosphate as substrate
[6] = target: T1, Serine/threonine-protein phosphatase 2A activator (Homo sapiens) (UniProt Q15257); test: Inhibitory activity against protein phosphatase (PP2A) at concentration of 250 uM using fluorescein diphosphate as substrate
T1 sequence (whole entry): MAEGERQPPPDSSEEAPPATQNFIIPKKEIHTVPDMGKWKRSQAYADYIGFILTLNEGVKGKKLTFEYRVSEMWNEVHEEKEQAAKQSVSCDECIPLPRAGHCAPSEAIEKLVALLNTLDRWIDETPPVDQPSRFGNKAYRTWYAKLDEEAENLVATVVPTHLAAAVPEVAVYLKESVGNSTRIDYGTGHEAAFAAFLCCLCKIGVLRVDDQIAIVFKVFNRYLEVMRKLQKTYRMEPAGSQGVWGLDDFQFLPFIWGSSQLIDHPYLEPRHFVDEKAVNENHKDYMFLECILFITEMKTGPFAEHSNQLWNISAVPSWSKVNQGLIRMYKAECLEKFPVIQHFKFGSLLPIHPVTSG

[7] = test system: Serine/threonine-protein phosphatase 2A catalytic subunit alpha; test: Inhibitory activity against protein phosphatase (PP2A) at concentration of 1 uM using fluorescein diphosphate as substrate
[8] = test system: Serine/threonine-protein phosphatase 2A catalytic subunit alpha; test: Inhibitory activity against protein phosphatase (PP2A) at a concentration of 200 uM using fluorescein diphosphate as substrate
[9] = test system: Serine/threonine-protein phosphatase 2A catalytic subunit alpha; test: Inhibitory activity against protein phosphatase (PP2A) at a concentration of 125 uM using fluorescein diphosphate as substrate
[10] = target: T1, Serine/threonine-protein phosphatase 2A activator (Homo sapiens); test: Inhibitory activity against protein phosphatase (PP2A) at a concentration of 150 uM using fluorescein diphosphate as substrate
[11] = target: T1, Serine/threonine-protein phosphatase 2A activator (Homo sapiens); test: Inhibitory activity against protein phosphatase (PP2A) at a concentration of 100 uM using fluorescein diphosphate as substrate
[12] = target: T1, Serine/threonine-protein phosphatase 2A activator (Homo sapiens); test: (§1) Inhibitory activity against protein phosphatase (PP2A) at a concentration of 250 uM using fluorescein diphosphate as substrate
[13] = target: T2, Serine/threonine-protein phosphatase 2A 55 kDa regulatory subunit B alpha isoform (Homo sapiens) (UniProt P63151); test: as §1
T2 sequence (whole entry): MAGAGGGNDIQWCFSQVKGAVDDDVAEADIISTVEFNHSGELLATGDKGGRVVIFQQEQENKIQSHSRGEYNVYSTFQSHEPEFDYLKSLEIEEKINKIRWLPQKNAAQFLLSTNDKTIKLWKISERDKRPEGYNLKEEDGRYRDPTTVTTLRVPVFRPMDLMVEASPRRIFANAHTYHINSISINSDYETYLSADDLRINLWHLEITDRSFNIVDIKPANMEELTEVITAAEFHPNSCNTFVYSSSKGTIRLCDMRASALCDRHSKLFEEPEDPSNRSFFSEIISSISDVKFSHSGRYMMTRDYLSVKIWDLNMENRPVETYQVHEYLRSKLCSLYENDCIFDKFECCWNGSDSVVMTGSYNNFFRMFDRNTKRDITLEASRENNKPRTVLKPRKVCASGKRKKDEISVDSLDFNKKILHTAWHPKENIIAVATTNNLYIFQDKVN

[14] = test system: Serine/threonine-protein phosphatase 2A catalytic subunit alpha; test: Inhibitory activity against protein phosphatase (PP2A) at a concentration of 150 uM using fluorescein diphosphate as substrate

| SMILES | inhibition [1] [%] | inhibition (Homo sapiens) [%] | inhibition [2] [%] | inhibition [3] [%] | further results |
| --- | --- | --- | --- | --- | --- |
| C=C(CC[C@H](O)[C@@]1(C)CC[C@H](C(C)(C)O)O1)[C@H]1CC[C@H]2O[C@@H]([C@]3(C)CC[C@@H](C(C)(C)OC)O3)CC[C@]2(C)O1 | 0 | 4.7 | 65.1 | 57.2 |  |
| C=C(CC[C@H]1O[C@@H](C(C)(C)O)CC[C@]1(C)O)[C@H]1CC[C@H]2O[C@@H]([C@]3(C)CC[C@@H](Br)C(C)(C)O3)CC[C@]2(C)O1 | 0 | 6.2 | 74.7 | 81.3 |  |
| C=C(CC[C@H](O)[C@@]1(C)CC[C@H](C(C)(C)O)O1)[C@H]1CC[C@H]2O[C@@H]([C@]3(C)CC[C@](OC)(C(C)C)O3)CC[C@]2(C)O1 | 0 | 2.7 | 43.1 | 55.4 |  |
| C=C(CC[C@H](O)[C@@]1(C)CC[C@H](C(C)(C)O)O1)[C@H]1CC[C@H]2O[C@@H]([C@]3(C)CCC(=O)O3)CC[C@]2(C)O1 | 33.7 | 40.1 | 49.4 | 63.2 |  |
| CC(C)(O)[C@H]1CC[C@](C)([C@@H](O)CC[C@](O)(CO)C2=CC[C@H]3O[C@@H]([C@]4(C)CC[C@@H](Br)C(C)(C)O4)CC[C@]3(C)O2)O1 | 52.8 | 93.2 | 99.1 | 100 |  |
| C=C(CC[C@@H](O)[C@]1(C)CC[C@H](C(C)(C)O)O1)[C@H]1CC[C@H]2O[C@@H]([C@]3(C)CC[C@@H](Br)C(C)(C)O3)CC[C@]2(C)O1 |  |  |  |  | inhibition [4]: 23.7%; inhibition [5]: 66.8%; inhibition [6]: 95.3%; inhibition [7]: 7.5% |
| C=C(CC[C@H](O)[C@@]1(C)CC[C@H](C(C)(C)O)O1)[C@H]1CC[C@H]2O[C@@H]([C@]3(C)CC[C@@H](Br)C(C)(C)O3)CC[C@@]2(C)O1 |  |  | 11.4 | 66.4 | inhibition [8]: 47.8%; inhibition [9]: 24%; inhibition [10]: 26.1% |
| CC(C)(O)[C@H]1CC[C@](C)([C@@H](O)CC[C@@](O)(CO)C2=CC[C@H]3O[C@@H]([C@]4(C)CC[C@@H](Br)C(C)(C)O4)CC[C@]3(C)O2)O1 | 15.2 | 31.8 | 89.6 | 97.8 |  |
| C=C([C@@H](O)C[C@H](O)[C@@]1(C)CC[C@H](C(C)(C)O)O1)[C@H]1CC[C@H]2O[C@@H]([C@]3(C)CC[C@@H](Br)C(C)(C)O3)CC[C@]2(C)O1 | 41.1 | 93.4 | 100 | 100 |  |
| C=C(CC[C@H](O)[C@@]1(C)CC[C@H](C(C)(C)O)O1)[C@H]1CC[C@H]2O[C@@H]([C@]3(C)CC[C@@H](Br)C(C)(C)O3)CC[C@]2(C)O1 | 8.2 | 12.2 |  |  | inhibition [11]: 25.2%; inhibition [12]: 37.7% |
| C/C(=C\C[C@H](O)[C@@]1(C)CC[C@H](C(C)(C)O)O1)[C@H]1CC[C@H]2O[C@@H]([C@]3(C)CC[C@@H](Br)C(C)(C)O3)CC[C@@]2(C)O1 | 17.9 | 41.9 | 99.5 |  | inhibition [13]: 100% |
| CC(CCC[C@H]1O[C@@H]([C@]2(C)CC[C@@H](Br)C(C)(C)O2)CC[C@]1(C)O)CC[C@H](O)[C@@]1(C)CC[C@H](C(C)(C)O)O1 (stereo partly specified) |  | 45.9 | 57.8 | 74.5 | inhibition [7]: 43.6% |
| C=C(CC[C@H](O)[C@@]1(C)CC[C@H](C(C)(C)O)O1)[C@H]1CC[C@H]2O[C@]3(C)CC[C@@H](Br)C(C)(C)O[C@H]3CC[C@]2(C)O1 |  |  |  | 66.5 | inhibition [4]: 20.4%; inhibition [5]: 59.7%; inhibition [7]: 18.9% |
| C=C([C@H](O)C[C@H](O)[C@@]1(C)CC[C@H](C(C)(C)O)O1)[C@H]1CC[C@H]2O[C@@H]([C@]3(C)CC[C@@H](Br)C(C)(C)O3)CC[C@]2(C)O1 | 42.2 | 45.6 | 65.1 | 79.3 |  |
| C/C(=C/C[C@@H](O)[C@]1(C)CC[C@H](C(C)(C)O)O1)[C@H]1CC[C@H]2O[C@@H]([C@]3(C)CC[C@@H](Br)C(C)(C)O3)CC[C@]2(C)O1 |  |  | 6.5 | 59.8 | inhibition [8]: 35.8%; inhibition [14]: 32.7%; inhibition [9]: 18.8% |
| C=C(CC[C@H](O)[C@@]1(C)CC[C@H](C(C)(C)O)O1)[C@H]1CC[C@H]2O[C@@H]([C@]3(C)CC[C@@H](C(C)(C)O)O3)CC[C@]2(C)O1 | 0 | 0 | 40.4 | 55.4 |  |
